Data reported in patent publication US9783796B2, “Amidase, gene for the same, vector, transformant, and method for production of optically active carboxylic acid amide and optically active carboxylic acid by using any one of those items” (KANEKA CORPORATION, priority 2007, dated 2017).
Entries after “also recorded” stand apart in the source; their conditions may differ. Read-outs that look alike come from different tables or passages of the source.

B1: HCS: amidase purified from Cupriavidus sp. KNK-J915 strain (FERM BP-10739), amino acid sequence SEQ ID NO:1 (protein, listed as Cupriavidus sp.)
chain: MPTDIQTLQTRLHDGAVSRADVIAQAAQHAQQPDAHAVFLHTTFDTAAQVAKAADAACLAGKPLHPLAGLPVSVKDLFNIAGEASRAGSPVRSDALAATADATVVRRLRESGAALVGRTNMTEFAFSGVGINPHFGTPVNPADKQVARIPGGSSSGAAVSVALGLAVAGLGSDTGGSIRIPAALCGLTGFKPTARRVPLDGAFPLSYTLDTACAMARTVQDCVLVDSVIADQAVLPVIKGAAGIRLAIPRQVLLDDLDDTVARAFDRALGRLSAAGVQIEHIDLPELAELATINASGGFTAAEAHAIHRHVLATRREQYDPRVASRIDRGAAMSAADYVDLMRARLDWITRVAARLEGFDAVACPTVPMVAPPIAPLVADDALFFHTNALLLRNTSAFNFLDGCSISLPCHQPDELPVGLMLSHGALRDAQLLGTAIALESIVKPAA

Key:
HCS = test: Substrate specificity of HCS; format: biochemical, Cupriavidus sp. KNK-J915; details: for Relative activity (%): activity on (R,S)-nipecotamide set to 100, 1% substrate, 30° C., 100 mM phosphate buffer pH 7.0
Procedure: Next, the substrate specificity of HCS was analyzed. The substrate compound was added in a form of a 1% solution. The enzyme reaction was allowed to proceed at 30° C. in 100 mM phosphate buffer (pH 7.0). The resultant solution was analyzed under the high speed liquid chromatography analysis conditions A described in Example 1 or the high speed liquid chromatography analysis conditions B shown below.
High Speed Liquid Chromatography Analysis Condition B
Column: SUMICHIRAL OA-5000 (4.6 mmφ×150 mm, product of Sumika Chemical Analysis Service, Ltd.)
Eluant: 2 mM CuSO4 aqueous solution
(§1) Column temperature: 30° C.
Measurement wavelength: 254 nm

purified enzyme (HCS) = test: Selective hydrolysis of racemic carboxylic acid amides with the purified enzyme solution (Examples 8 to 10); format: biochemical, Cupriavidus sp. KNK-J915; details: 100 mM phosphate buffer pH 7.0, 30° C.; for conversion ratio: 1% substrate; for optical purity: product acid, 1% racemic substrate
Procedure: To 100 mM phosphate buffer (pH 7.0) were added 1% racemic pipecolic acid amide and the purified enzyme solution obtained in Example 1, and allowed to react at 30° C. Then high speed liquid chromatography analysis was conducted to determine the conversion ratio (%) and optical purity (% e.e.). […] Conversion ratio (%)=P/(S1+P)×100
(§2) (P: amount of product (mol), S1: amount of residual substrate (mol)) Optical purity (% e.e.)=(A−B)/(A+B)×100
(§3) (A represents the amount of the target enantiomer, and B represents the amount of the corresponding enantiomer.)
To 100 mM phosphate buffer solution (pH 7.0) were added 1% racemic indoline carboxylic acid amide and the purified enzyme solution obtained in Example 1. The obtained mixture was allowed to react at 30° C., and then the substrate and product in the reaction liquid were converted into derivatives with acetic anhydride. The conversion ratio (%) and optical purity (% e.e.) were determined by high speed liquid chromatography analysis of the obtained derivatives.
To 100 mM phosphate buffer (pH 7.0) were added 1% racemic phenyl propionic acid amide and the purified enzyme solution obtained in Example 1, and allowed to react at 30° C. The conversion ratio (%) and optical purity (% e.e.) were determined by high speed liquid chromatography analysis.

[1] = tested on: putative amidase derived from Ralstonia eutropha JMP134 strain; test: Selective hydrolysis of S-enantiomer in racemic N-benzylnipecotamide with culture solution of E. coli HB101 (pNRE); format: biochemical
Text: Primer 7 (SEQ ID NO:10 in the sequence listing) having the NdeI site added to the initiation codon site, and primer 8 (SEQ ID NO:11 in the sequence listing) having an SacI site immediately downstream of the termination codon were synthesized based on the base sequence (SEQ ID NO:9 in the sequence listing) encoding the putative amidase derived from Ralstonia eutropha JMP134 strain, which has high sequence identity to the base sequence of the present invention derived from Cupriavidus sp. KNK-J915 (FERM BP-10739) determined in Example 3. An amount of 50 μl of a buffer for ExTaq was prepared. This buffer contained the two primers (primer 7 and primer 8, each 50 pmol), chromosomal DNA derived from Ralstonia eutropha JMP134 strain (10 ng), dNTP (each 10 nmol) and ExTaq (2.5 U, product of TAKARA SHUZO Co., Ltd.). Heat denaturation (97° C., 1 minute), annealing (60° C., 1 minute), and an extension reaction (72° C., 1.5 minutes) were repeated for 30 cycles. The reaction fluid was cooled to 4° C. and subjected to agarose gel electrophoresis to confirm amplification of the DNA. […]
To 100 mM phosphate buffer (pH 7.0) were added 1% racemic N-benzylnipecotamide and the culture solution of E. coli HB101 (pNRE) obtained in Example 11, and allowed to react at 30° C. Thereafter, the conversion ratio (%) and optical purity (% e.e.) were determined by high speed liquid chromatography analysis. […]

E. coli HB101 (pNCS) = test: Selective hydrolysis of S-enantiomer in racemic nipecotamide with culture solution of E. coli HB101 (pNCS); format: biochemical, Escherichia coli; details: pH 8.0, 25 hours, 45° C.; for optical purity: from racemic nipecotamide
Procedure: An amount of 10.1 g of racemic nipecotamide was dissolved in water to prepare a substrate solution having a pH adjusted to 8.0. To 200 ml of the prepared substrate solution was added 2 ml of a culture solution obtained by culturing E. coli HB101 (pNCS) as in Example 6, and stirred for 25 hours at 45° C. After completion of the reaction, the reaction liquid was heated for 30 minutes at 70° C., and centrifuged to remove solid matters including cells. Subsequently, the substrate and the product in the reaction liquid were converted into derivatives with benzyl chloroformate. The obtained derivatives were analyzed by high speed liquid chromatography to determine the conversion ratio (%) and optical purity (% e.e.). […] Conversion ratio (%)=P/(S1+P)×100
as §2, §3
High Speed Liquid Chromatography Analysis Condition
[Analysis of Conversion Ratio]
(§4) Column: YMC-A303 (4.6 mmφ×250 mm, product of YMC Co., Ltd.)
Eluant: 20 mM phosphate aqueous solution (pH 2.5)/acetonitrile=7/3
Column temperature: 35° C.
(§5) Measurement wavelength: 210 nm
[Optical Purity Analysis]
Column: CHIRALPAK AD-RH (4.6 mmφ×150 mm, product of DAICEL CHEMICAL INDUSTRIES, LTD.)
Column temperature: room temperature

[2] = Amidase activity of purified enzyme (production of N-benzylnipecotic acid, HPLC); format: biochemical; details: 1% N-benzylnipecotamide, 100 mM phosphate buffer pH 7.0, 1 hour, 30° C.
Procedure: In the following examples, the amidase activity was determined by the following procedure. To 100 mM phosphate buffer (pH 7.0) were added 1% N-benzylnipecotamide and an enzyme solution, and allowed to react for 1 hour at 30° C. Then, the solution was analyzed under high speed liquid chromatography analysis conditions A. Enzyme activity which produces 1 μmol of N-benzylnipecotic acid per 1 minute under these conditions was defined as 1 unit.
High Speed Liquid Chromatography Analysis Condition A
as §4
Eluant: 20 mM phosphate aqueous solution (pH 2.5)/acetonitrile=9/1
as §1, §5

[3] = Optimum pH, optimum temperature and thermal stability of the amidase reaction of purified HCS; format: biochemical; details: stable at or below this temperature
Procedure: The Optimum pH and optimum temperature of an amidase reaction of the purified enzyme obtained in Example 1, and thermal stability of the enzyme were determined by quantifying N-benzylnipecotic acid produced in the hydrolysis reaction using N-benzylnipecotamide as a substrate, by HPLC. For determination of the optimum pH, the reaction was allowed to proceed at each pH for 1 hour at 30° C., and stopped by addition of acetonitrile. The resultant solution was analyzed under the high speed liquid chromatography analysis conditions A described in Example 1. For determination of the optimum temperature, the reaction was allowed to proceed at each temperature for 1 hour, and stopped by addition of acetonitrile. The resultant solution was analyzed under the high speed liquid chromatography analysis conditions A described in Example 1. For determining the thermal stability, after incubation at each temperature for 30 minutes, the reaction was allowed to proceed for 1 hour, and stopped by addition of acetonitrile. The resultant solution was analyzed under the high speed liquid chromatography analysis conditions A described in Example 1.

Row | Molecule | amidase activity of HCS on the substrate (in words) (HCS) | Relative activity (%) (HCS) | further results
1 | NC(=O)C1Cc2ccccc2N1 (centres unmarked) | particularly strong amidase activity; also recorded: especially strong activity | 64% | conversion ratio (purified enzyme (HCS)): 39.2%
2 | O=C(NCc1ccccc1)C1CCCNC1 (racemic) [(R,S)-N-benzylnipecotamide] | particularly strong amidase activity; also recorded: especially strong activity | 49% | conversion ratio ([1]; 1% substrate, 100 mM phosphate buffer pH 7.0, 30° C.): 50.1%
3 | NC(=O)C(O)c1ccccc1 (racemic) [(R,S)-mandelic acid amide] | particularly strong amidase activity; also recorded: especially strong activity | 49% | 
4 | NC(=O)C1CCCNC1 (racemic) [(R,S)-nipecotamide] | particularly strong amidase activity; also recorded: especially strong activity | 100% | conversion ratio (E. coli HB101 (pNCS)): 50.2%
5 | CC(C(N)=O)c1ccccc1 (racemic) [(R,S)-phenyl propionic acid amide] |  | 309% | amidase activity of HCS on the substrate (in words) (HCS; listed as phenyl propionic acid amide): particularly strong amidase activity; amidase activity of HCS on the substrate (in words) (HCS; listed as phenylpropionic acid amide): especially strong activity; conversion ratio (purified enzyme (HCS)): 36.0%
6 | NC(=O)C1CCCCN1 (racemic) [(R,S)-pipecolic acid amide] | particularly strong amidase activity; also recorded: especially strong activity | 34% | conversion ratio (purified enzyme (HCS)): 18.3%
7 | CC(N)C(N)=O (racemic) [D,L-alanine amide] |  | 0% | 
8 | CC(C)CC(N)C(N)=O (racemic) [D,L-leucine amide] |  | 0% | 
9 | NC(=O)C(N)Cc1ccccc1 (racemic) [D,L-phenylalanine amide] | weak amidase activity | 3.4% | 
10 | NC(=O)C1CCCN1 (racemic) [D,L-proline amide] |  | 0% | 
11 | NC(=O)CC(N)c1ccccc1 (racemic) [D,L-β-phenylalanine amide] |  | 0% | 
12 | O=C(O)[C@H]1Cc2ccccc2N1 [(R)-indoline carboxylic acid] |  |  | optical purity (purified enzyme (HCS)): 97.8 % e.e.
13 | NC(=O)[C@@H]1CCCNC1 [(R)-nipecotamide] |  |  | optical purity (E. coli HB101 (pNCS)): 98.3 % e.e.
14 | O=C(O)[C@H]1CCCCN1 [(R)-pipecolic acid] |  |  | optical purity (purified enzyme (HCS)): 80.1 % e.e.
15 | O=C(NCc1ccccc1)[C@@H]1CCCNC1 [(R)—N-benzylnipecotamide] |  |  | optical purity ([1]; residual amide, pH 7.0, 30° C.): 99.4 % e.e.
16 | O=C(O)[C@H]1CCCNC1 [(S)-nipecotic acid] |  |  | optical purity (E. coli HB101 (pNCS)): 97.1 % e.e.
17 | C[C@H](C(=O)O)c1ccccc1 [(S)-phenyl propionic acid] |  |  | optical purity (purified enzyme (HCS)): 89.1 % e.e.
18 | NC(=O)c1ccccc1 [benzamide] | weak amidase activity | 5.4% | 
19 | CC(C)C(N)=O [isobutylamide] | particularly strong amidase activity; also recorded: especially strong activity | 230% | 
20 | CCC(N)=O [propionic acid amide] | particularly strong amidase activity; also recorded: especially strong activity | 59% | 
21 | B1 |  |  | specific activity of the purified enzyme [2]: 1.7 U/mg-protein; Thermal stability: temperature at which stable [3]: ≤ 50 °C
